Data reported in patent publication US20200325177A1, “METHODS OF MAKING STREPTOGRAMIN COMPOSITIONS AND THE USE THEREOF” (THE REGENTS OF THE UNIVERSITY OF CALIFORNIA, priority 2017, published 2020).
Read-outs that look alike come from different tables or passages of the source.

Columns and labels:
Assay type in all cases: cell-based
[1] = system: S. aureus Linezolid-resistant; cfr; experiment: MIC, Gram-positive bacteria: S. aureus Linezolid-resistant; cfr; conditions: Staphylococcus aureus, column 9, read-out: Minimal Inhibitory Concentration (MIC) S. aureus Linezolid-resistant
[2] = system: H. influenzae ATCC 49247; experiment: MIC, Gram-negative bacteria: H. influenzae ATCC 49247; conditions: Haemophilus influenzae, ATCC49247, read-out: Minimal Inhibitory Concentration (MIC) H. influenzae ATCC 49247
[3] = system: E. faecium VRE; vanA; experiment: MIC, Gram-positive bacteria: E. faecium VRE; vanA; conditions: Enterococcus faecium, column 3, read-out: Minimal Inhibitory Concentration (MIC) E. faecium VRE
[4] = system: S. aureus Vat A streptogramin; experiment: MIC, Gram-positive bacteria: S. aureus Vat A streptogramin; conditions: Staphylococcus aureus; Gram-positive; column 5; read-out: Minimal Inhibitory Concentration (MIC) S. aureus Vat A streptogramin
[5] = system: Gram-Negative Organisms; experiment: microbe, parasite or virus in culture
[6] = system: E. faecium ATCC 35667; experiment: MIC, Gram-positive bacteria: E. faecium ATCC 35667; conditions: Enterococcus faecium, ATCC35667, column 2, read-out: Minimal Inhibitory Concentration (MIC) E. faecium ATCC 35667
[7] = system: P. aeruginosa MDR clinical isolate; experiment: MIC, Gram-negative bacteria: P. aeruginosa MDR clinical isolate; conditions: Pseudomonas aeruginosa, read-out: Minimal Inhibitory Concentration (MIC) P. aeruginosa MDR clinical isolate
[8] = system: S. aureus; experiment: MIC, Gram-positive bacteria: S. aureus (strains not named); conditions: Staphylococcus aureus, read-out: Minimal Inhibitory Concentration (MIC) S. aureus
[9] = system: P. aeruginosa ATCC 27853; experiment: MIC, Gram-negative bacteria: P. aeruginosa ATCC 27853; conditions: Pseudomonas aeruginosa, ATCC27853, read-out: Minimal Inhibitory Concentration (MIC) P. aeruginosa ATCC 27853
[10] = system: S. pneumoniae; experiment: MIC, Gram-positive bacteria: S. pneumoniae; conditions: Streptococcus pneumoniae, column 10, read-out: Minimal Inhibitory Concentration (MIC) S. pneumoniae
[11] = system: E. faecalis; experiment: MIC, Gram-positive bacteria: E. faecalis; conditions: Enterococcus faecalis, column 1, read-out: Minimal Inhibitory Concentration (MIC) E. faecalis
[12] = system: K. pneumoniae multidrug-resistant; experiment: MIC, Gram-negative bacteria: K. pneumoniae multidrug-resistant; conditions: Klebsiella pneumoniae, read-out: Minimal Inhibitory Concentration (MIC) K. pneumoniae multidrug-resistant
[13] = Acinetobacter baumannii, ATCC19606, read-out: Minimal Inhibitory Concentration (MIC), A. baumannii ATCC 19606
[14] = Escherichia coli, ATCC25922, read-out: Minimal Inhibitory Concentration (MIC), E. coli ATCC 25922
[15] = Escherichia coli, read-out: Minimal Inhibitory Concentration (MIC), E. coli BAS2006, OMP C, OMP F
[16] = Escherichia coli, read-out: Minimal Inhibitory Concentration (MIC), E. coli olC efflux defective
[17] = Escherichia coli, read-out: Minimal Inhibitory Concentration (MIC), E. coli permeability mutant BAS1314, IMP4213ZAB::TN10
[18] = Klebsiella pneumoniae, ATCC43816, read-out: Minimal Inhibitory Concentration (MIC), K. pneumoniae ATCC 43816
[19] = first unnamed S. aureus column (c4)
[20] = fourth unnamed S. aureus column (c8)
[21] = second unnamed S. aureus column (c6)
[22] = third unnamed S. aureus column (c7)
[23] = Escherichia coli, read-out: Minimal Inhibitory Concentration (MIC), E. coli ΔompC768, KanR insert

Measured: MIC

CC1=C\[C@@H](O)CC(=O)Cc2nc(co2)C(=O)N2CCC[C@@H]2C(=O)O[C@H]([C@@H](C)CO)[C@H](C)/C=C/C(=O)NC\C=C\1 [SA0110026]
32 mg/L: [5]; [16]
> 64 mg/L: [1] | [3] | [4] | [5]; [13] | [5]; [14] | [5]; [18] | [7] | [8]; [19] | [8]; [20] | [8]; [21] | [8]; [22] | [9] | [11] | [12]
64 mg/L: [2] | [5]; [15] | [5]; [17] | [6] | [10]

CC1=C\[C@@H](O)CC(=O)Cc2nc(co2)C(=O)N2CCC[C@@H]2C(=O)O[C@H]([C@H](C)COC(=O)Nc2ccc(C(F)(F)F)cc2)[C@H](C)/C=C/C(=O)NC\C=C\1 [SA0110193]
> 64 mg/L: [1] | [2] | [3] | [5]; [13] | [5]; [14] | [5]; [15] | [5]; [23] | [5]; [18] | [7] | [9] | [10] | [11] | [12]
8 mg/L: [5]; [16] | [6] | [8]; [19] | [8]; [20] | [8]; [21]
16 mg/L: [4] | [8]; [22]
4 mg/L: [5]; [17]

CC1=C\[C@@H](O)CC(=O)Cc2nc(co2)C(=O)N2CCC[C@@H]2C(=O)O[C@H]([C@@H](C)COC(=O)Nc2cnccn2)[C@H](C)/C=C/C(=O)NC\C=C\1 [SA0110101]
8 mg/L: [5]; [16]
32 mg/L: [10]
64 mg/L: [2] | [5]; [15] | [6]
16 mg/L: [5]; [17]
> 64 mg/L: [1] | [3] | [4] | [5]; [13] | [5]; [14] | [5]; [18] | [7] | [8]; [19] | [8]; [20] | [8]; [21] | [8]; [22] | [9] | [11] | [12]

CC1=C\[C@@H](O)CC(=O)Cc2nc(co2)C(=O)N2CCC[C@@H]2C(=O)O[C@H]([C@H](C)COC(=O)Nc2ccc(OC(F)(F)F)cc2)[C@H](C)/C=C/C(=O)NC\C=C\1 [SA0110195]
8 mg/L: [5]; [16] | [5]; [17] | [6] | [8]; [20]
16 mg/L: [8]; [19] | [8]; [21] | [8]; [22]
> 64 mg/L: [1] | [2] | [3] | [4] | [5]; [13] | [5]; [14] | [5]; [15] | [5]; [23] | [5]; [18] | [7] | [9] | [10] | [11] | [12]

C[C@H]1COc2c(N3CCN(C)CC3)c(F)cc3c(=O)c(C(=O)O)cn1c23 [levofloxacin]
0.25 mg/L: [5]; [13] | [8]; [19] | [8]; [22]
0.03 mg/L: [2] | [5]; [18]
0.5 mg/L: [10]
8 mg/L: [1]
2 mg/L: [8]; [20] | [9]
> 8 mg/L: [3] | [7]
1 mg/L: [4] | [11] | [12]
4 mg/L: [6]
0.12 mg/L: [8]; [21]
0.015 mg/L: [5]; [14] | [5]; [23]
